Entries after “also recorded” stand apart in the source; their conditions may differ.
Assays:
[1] = tested on: Human fibroblast-like synovial (FLS) cells; assay: ELISA of chemokine production in FLS tissue culture supernatants; format: cell-based
Description: ELISA immunoassay: Tissue culture supernatants were centrifuged at 1500× g for 5-7 min to obtain cell-free samples and the aliquots were stored at −20° C. until further use. Production of chemokine Gro-α was monitored in the tissue culture supernatants by ELISA employing human Gro-α DuoSet (R&D Systems Inc.) as per the manufacturer's instructions. Production of cytokine TNF-α was monitored in the tissue culture supernatants using specific antibody pairs from eBioscience, Inc., and production of IL-8 was monitored using specific antibody pairs from R&D Systems, Inc., as per the manufacturer's instructions. The concentration of the cytokines or chemokines in the tissue culture supernatants was evaluated by establishing a standard curve with serial dilutions of the recombinant human cytokines or chemokines as required.
ELISA immunoassay: Tissue culture supernatants were centrifuged at 1500× g for 5-7 min to obtain cell-free samples and the aliquots were stored at −20° C. until further use. Production of chemokine Gro-α was monitored in the tissue culture supernatants by ELISA employing human Gro-α DuoSet (R&D Systems Inc.) per the manufacturer's instructions. […] The concentrations of the cytokines or chemokines in the tissue culture supernatants were evaluated by establishing a standard curve with serial dilutions of the recombinant human cytokines or chemokines as required.

phospho-DAPK (Ser308) = assay: Immunoblot with phospho-DAPK (Ser308) antibody; format: cell-based, human; details: within 15 min, compared to un-stimulated cells
Description: (§1) Immunoblots: Cell lysates were prepared in lysis buffer containing 20 mM Tris-HCl pH 7.5, 150 mM NaCl, 1 mM EDTA, 1 mM EGTA, 1 mM sodium fluoride, 1 mM sodium orthovanadate, 2.5 mM sodium pyrophosphate, protease inhibitor cocktail (Sigma-Aldrich) and 1% (v/v) Triton X-100. The lysates were electrophoretically resolved on a 4-12% NuPAGE® Bis-Tris gels (Invitrogen Corporation, Burlington, ON, Canda), followed by transfer to nitrocellulose membranes (Millipore, Canada). The membranes were subsequently probed with either phospho-p300 (Ser1834) polyclonal antibody, monoclonal antibody against phospho-DAPK (Ser308) or monoclonal antibody to glyceraldehyde-3-phosphate dehydrogenase (GAPDH) in TBST (20 mM Tris pH 7.5, 150 mM NaCl, 0.1% Tween 20) containing 5% skimmed milk powder. Affinity purified HRP-linked horse anti-mouse or goat anti-rabbit antibodies were used for detection as required. The membranes were development with Amersham ECL detection system (GE Healthcare, Baie d'Urfe QC, Canada) according to the manufacturer's instructions.
(§2) Immunoblots: Cell lysates were prepared in lysis buffer containing 20 mM Tris-HCl pH 7.5, 150 mM NaCl, 1 mM EDTA, 1 mM EGTA, 1 mM sodium fluoride, 1 mM sodium orthovanadate, 2.5 mM sodium pyrophosphate, protease inhibitor cocktail (Sigma-Aldrich Canada Inc.) and 1% (v/v) Triton X-100. […]

phospho-p300 (Ser1834) = assay: Immunoblot with phospho-p300 (Ser1834) antibody; format: cell-based, human; details: within 15 min, compared to un-stimulated cells
Description: as §1, §2

[2] = tested on: NF-κB subunits p50 and p65; assay: Translocation of NF-κB subunits p50 and p65 (nuclear extract immunoblots); format: cell-based, human; details: 20 ng/mL, 30 mins
Description: Translocation of NF-κB subunits p50 and p65: Nuclear extracts were prepared employing NE-PER® extraction reagents (Thermo Fisher Scientific, Toronto, ON, Canada) as per the manufacturer's instructions. In order to monitor direct NF-κB activation, equivalent nuclear extracts (5-8 μg) were resolved on 4-12% NuPAGE® Bis-Tris gels (Invitrogen Canada Inc.) and transferred to nitrocellulose membranes. The membranes were blocked with TBST containing 3% fish skin gelatin (Sigma-Aldrich), and probed with antibodies specific for either NE-κB subunit p50 or p65, in TBST containing 1% fish gelatin. The membranes were also probed with antibody to human histone protein HADC-1 to assess the equivalent protein loading. […]
The presence of common targets in macrophages was supported by the observation that both IL-32 and IL-17 induced similar level of IL-23 mRNA expression (FIG. 8A) and chemokine IL-8 production in human macrophage-like THP-1 cells (FIG. 7C). […] Therefore to further evaluate similarity of induced downstream response in synovial fibroblasts, this study analyzed the direct activation of transcription factor NF-κB. […] We also monitored the activity of NF-κB using a luminescence assay in-vitro employing rabbit synovial fibroblast cell line (HIG-82) in the presence of IL-32 and IL-17. The activation of NF-κB was monitored after 4 and 6 hr of treatment. […]

IL-17: Recombinant human cytokine IL-17A/F from eBioscience, used as stimulant
Chemokine Gro-α production [1]: robust induction; also recorded: robust Gro-α production | Effect on TNF-α-induced chemokine Gro-α production ([1]; TNF-α 10 ng/mL plus cytokine 20 ng/mL, 24 hr): synergistically enhanced | Phosphorylation of DAPK (Ser308) by immunoblot (phospho-DAPK (Ser308)): increased phosphorylation | Phosphorylation of p300 (Ser1834) by immunoblot (phospho-p300 (Ser1834)): increased phosphorylation | Nuclear translocation of NF-κB p50 ([2]; FLS cells and macrophage-like THP-1 cells): mediated nuclear translocation | Nuclear translocation of NF-κB subunit p65 ([2]; FLS cells and macrophages): mediated

From patent US20130123201A1, “MODULATION OF CYTOKINE-INDUCED CHRONIC INFLAMMATORY RESPONSES” (UNIVERSITY OF MANITOBA, priority 2010, published 2013)
